The record followed here is US8497296B2, “N,N′-hydrazino-bis-isatin derivatives with selective activity against multidrug-resistant cancer cells” (King Saud University, priority 2011, dated 2013).

SMILES strings stand for the structures.

In one experiment the test system is KB-3-1 cells. Put plainly: MTT cytotoxicity assay, parental KB-3-1 cell line. The class given is cell-based. The note with it: Homo sapiens, parental KB-3-1 cells (HeLa derivative), 72 h incubation, at least three experiments, read-out: IC50 KB3-1. On the procedure:
(§1) The cytotoxicity of the prepared compounds was evaluated at Laboratory of Cell Biology, National Cancer Institute, National Institutes of Health, Bethesda, Md. 20892, Group in Biomolecular, USA, using the following protocol:
KB-3-1 cells (a HeLa deriviative) and its MDR derivative (KB-V1) were grown as previously described. Cell survival was measured by the MTT (3-(4,5-dimethylthiazol-2-yl)-2,5-diphenyltetrazolium bromide) assay as previously described. Briefly, cells were seeded in 100 μL of growth medium at a density of 5000 cells/well in 96-well plates and allowed to establish for 24 h, at which time serially diluted drugs were added in an additional 100 μL of growth medium. Cells were then incubated for 72 h at 37° C. in humidified 5% CO2, at which time the growth medium was drawn and replaced with MTT in IMDM growth medium and incubated for 4 h. The MTT solution was then drawn from the wells, and 100 μL of acidified ethanol solution was added to each well and after 15 min absorption at 560 nm was measured. […] The effect of treatment on cell viability was determined using the luminescent Cell Titer Glo Assay (Promega).
In general terms: Formazan colour is commonly taken as a measure of viable cells.

The next experiment concerns KB-V1 cells. Put plainly: MTT cytotoxicity assay, P-glycoprotein-expressing MDR cell line KB-V1. Format: cell-based. The note with it: for IC50: Homo sapiens, P-glycoprotein-expressing MDR KB-V1 cells, 72 h incubation, MTT, at least three experiments, read-out: IC50 KBV1; for RR (MDR1 selectivity): ratio of IC50 against KB-3-1 cells divided by IC50 against KB-V1 cells, >1 = MDR1-selective. On the procedure: as §1
KB-3-1 cells (a HeLa deriviative) and its MDR derivative (KB-V1) were grown as previously described. Cell survival was measured by the MTT (3-(4,5-dimethylthiazol-2-yl)-2,5-diphenyltetrazolium bromide) assay as previously described. Briefly, cells were seeded in 100 μL of growth medium at a density of 5000 cells/well in 96-well plates and allowed to establish for 24 h, at which time serially diluted drugs were added in an additional 100 μL of growth medium. Cells were then incubated for 72 h at 37° C. in humidified 5% CO2, at which time the growth medium was drawn and replaced with MTT in IMDM growth medium and incubated for 4 h. The MTT solution was then drawn from the wells, and 100 μL of acidified ethanol solution was added to each well and after 15 min absorption at 560 nm was measured. […]

Take `N/N=C1\C(=O)Nc2ccccc21` [Compound 2a, (Z)-3-Hydrazonoindolin-2-one]: the IC50 in the experiment on KB-3-1 cells is greater than 500 µM; in the experiment on KB-V1 cells, 125 ± 39.4 µM.

As to `O=C1Nc2ccccc2/C1=N/N=C1\C(=O)N(c2ccccc2)c2ccccc21` [Compound 4, (Z)-3-((Z)-(2-Oxoindolin-3-ylidene)hydrazono)-1-phenylindolin-2-one], in the experiment with KB-3-1 cells, the IC50 is 8.7 ± 2.21 µM. In the experiment on KB-V1 cells, the IC50 came to 10.8 ± 1.1 µM and the “RR (MDR1 selectivity)” value came to 0.81.

With `O=C1Nc2ccc(F)cc2/C1=N/N=C1\C(=O)N(c2ccccc2)c2ccccc21` [Compound 12, (Z)-5-Fluoro-3-((Z)-(2-oxo-1-phenylindolin-3-ylidene)hydrazono)indolin-2-one], the 50% inhibitory concentration (IC50) with KB-3-1 cells amounted to 10.2 ± 1.52 µM. Besides, in the experiment on KB-V1 cells, the IC50 came to 11.2 ± 0.61 µM and the “RR (MDR1 selectivity)” value came to 0.91.

As to `O=C1Nc2ccc([N+](=O)[O-])cc2/C1=N/N=C1\C(=O)N(c2ccccc2)c2ccccc21` [Compound 16, (Z)-5-Nitro-3-((Z)-(2-oxo-1-phenylindolin-3-ylidene)hydrazono)indolin-2-one], the 50% inhibitory concentration (IC50) in the experiment on KB-3-1 cells was 37.1 ± 4.05 µM; in the experiment on KB-V1 cells, 48.6 ± 2.32 µM. Further, the “RR (MDR1 selectivity)” value with KB-V1 cells worked out at 0.76.

On to `O=C1Nc2ccccc2/C1=N/N=C1\C(=O)Nc2ccc(F)cc21` [Compound 5, (Z)-5-Fluoro-3-((Z)-(2-oxoindolin-3-ylidene)hydrazono)indolin-2-one], for which the half-inhibitory concentration (IC50) in the experiment with KB-3-1 cells stood at 28.1 ± 2.48 µM. Moreover, in the experiment with KB-V1 cells, the IC50 came out at 25.3 ± 10.1 µM and the “RR (MDR1 selectivity)” value came out at 1.11.

On to `O=C1Nc2ccccc2/C1=N/N=C1\C(=O)Nc2ccc(Br)cc21` [Compound 7, (Z)-5-Bromo-3-((Z)-(2-oxoindolin-3-ylidene)hydrazono)indolin-2-one], for which the IC50 in the experiment on KB-3-1 cells came to 9.71 ± 0.31 µM; in the experiment with KB-V1 cells, 7.58 ± 1.43 µM. In addition, in the experiment with KB-V1 cells, the “RR (MDR1 selectivity)” value turned out to be 1.28.

Take `O=C1Nc2ccccc2/C1=N/N=C1\C(=O)Nc2ccc([N+](=O)[O-])cc21` [Compound 9, (Z)-5-Nitro-3-((Z)-(2-oxoindolin-3-ylidene)hydrazono)indolin-2-one]: in the experiment on KB-3-1 cells, the IC50 was 29.2 ± 2.81 µM. In the experiment on KB-V1 cells, the IC50 was found to be 30.4 ± 6.75 µM and the “RR (MDR1 selectivity)” value came out at 0.96.

As for `O=C1Nc2ccccc2/C1=N/N=C1\C(=O)Nc2ccccc21` [Compound 3, (3Z,3′Z)-3,3′-(Hydrazine-1,2-diylidene)diindolin-2-one], the IC50 in the experiment on KB-3-1 cells was found to be 17.1 ± 0.83 µM; in the experiment with KB-V1 cells it was 17.3 ± 1.59 µM. The “RR (MDR1 selectivity)” value in the experiment on KB-V1 cells is recorded as 0.99.

`O=C1Nc2ccc(F)cc2/C1=N/N=C1\C(=O)Nc2ccc(Cl)cc21` [Compound 19, (Z)-5-Chloro-3-((Z)-(5-fluoro-2-oxoindolin-3-ylidene)hydrazono)indolin-2-one]: the IC50 with KB-3-1 cells was determined as 17.4 ± 4.41 µM. Further, in the experiment on KB-V1 cells, the IC50 was 11.3 ± 3.26 µM and the “RR (MDR1 selectivity)” value is on record as 1.54.

For `O=C1Nc2ccc(F)cc2/C1=N/N=C1\C(=O)Nc2ccc(F)cc21` [Compound 18, (3Z,3′Z)-3,3′-(Hydrazine-1,2-diylidene)bis(5-fluoroindolin-2-one)], the IC50 amounted to 20.4 ± 4.62 µM in the experiment on KB-3-1 cells and 16.5 ± 6.28 µM with KB-V1 cells. Moreover, the “RR (MDR1 selectivity)” value with KB-V1 cells is 1.23.

`O=C1Nc2ccc(F)cc2/C1=N/N=C1\C(=O)Nc2ccc(OC(F)(F)F)cc21` [Compound 23, (Z)-5-Fluoro-3-((Z)-(2-oxo-5-(trifluoromethoxy)indolin-3-ylidene)hydrazono)indolin-2-one]: the IC50 in the experiment on KB-3-1 cells amounted to 15.2 ± 1.34 µM. Also, in the experiment with KB-V1 cells, the IC50 came to 11.6 ± 2.55 µM and the “RR (MDR1 selectivity)” value turned out to be 1.31.

For the compound `Cc1ccc2c(c1)/C(=N/N=C1\C(=O)Nc3ccccc31)C(=O)N2` [Compound 8, (Z)-5-Methyl-3-((Z)-(2-oxoindolin-3-ylidene)hydrazono)indolin-2-one], in the experiment on KB-3-1 cells, the IC50 was determined as 12.1 ± 3.14 µM. Further, in the experiment on KB-V1 cells, the half-inhibitory concentration (IC50) is 14.9 ± 1.26 µM and the “RR (MDR1 selectivity)” value amounted to 0.81.

For the compound `O=C1Nc2ccc(F)cc2/C1=N/N=C1\C(=O)Nc2ccc([N+](=O)[O-])cc21` [Compound 22, (Z)-5-Fluoro-3-((Z)-(5-nitro-2-oxoindolin-3-ylidene)hydrazono)indolin-2-one], the IC50 in the experiment on KB-3-1 cells came to 56 ± 1.5 µM. Besides, in the experiment on KB-V1 cells, the IC50 stood at 38.6 ± 13.5 µM and the “RR (MDR1 selectivity)” value came out at 1.45.

With `O=C1Nc2ccc(Cl)cc2/C1=N/N=C1\C(=O)N(c2ccccc2)c2ccccc21` [Compound 13, (Z)-5-Chloro-3-((Z)-(2-oxo-1-phenylindolin-3-ylidene)hydrazono)indolin-2-one], the IC50 in the experiment on KB-3-1 cells was determined as 6.79 ± 0.63 µM. Moreover, in the experiment on KB-V1 cells, the IC50 was determined as 6.07 ± 1.19 µM and the “RR (MDR1 selectivity)” value was 1.12.

Take `O=C1Nc2ccc(F)cc2/C1=N/N=C1\C(=O)Nc2ccc(Br)cc21` [Compound 20, (Z)-5-Bromo-3-((Z)-(5-fluoro-2-oxoindolin-3-ylidene)hydrazono)indolin-2-one]: the IC50 with KB-3-1 cells was 15.4 ± 3.97 µM; with KB-V1 cells it was 18.6 ± 2.01 µM. In addition, in the experiment with KB-V1 cells, the “RR (MDR1 selectivity)” value was 0.83.

Regarding `O=C1Nc2ccccc2/C1=N/N=C1\C(=O)Nc2ccc(OC(F)(F)F)cc21` [Compound 10, (Z)-3-((Z)-(2-Oxoindolin-3-ylidene)hydrazono)-5-(trifluoromethoxy)indolin-2-one], the IC50 with KB-3-1 cells is 9.75 ± 0.11 µM. Besides, in the experiment on KB-V1 cells, the IC50 was 5.67 ± 1.18 µM and the “RR (MDR1 selectivity)” value was found to be 1.72.

For `Cc1ccc2c(c1)/C(=N/N=C1\C(=O)Nc3ccc(F)cc31)C(=O)N2` [Compound 21, (Z)-5-Fluoro-3-((Z)-(5-methyl-2-oxoindolin-3-ylidene)hydrazono)indolin-2-one], in the experiment on KB-3-1 cells, the IC50 stood at 18.9 ± 0.46 µM. Moreover, in the experiment with KB-V1 cells, the IC50 worked out at 17.9 ± 0.82 µM and the “RR (MDR1 selectivity)” value is 1.06.

As for `O=C1Nc2ccc(OC(F)(F)F)cc2/C1=N/N=C1\C(=O)N(c2ccccc2)c2ccccc21` [Compound 17, ((Z)-3-(Z)-(2-oxo-1-phenylindolin-3-ylidene)hydrazono)-5-(trifluoromethoxy)indolin-2-one], the IC50 in the experiment with KB-3-1 cells was determined as 7.67 ± 0.88 µM. In the experiment with KB-V1 cells, the IC50 was determined as 4.8 ± 0.12 µM and the “RR (MDR1 selectivity)” value amounted to 1.60.

Take `O=C1/C(=N\N=C2/C(=O)N(c3ccccc3)c3ccccc32)c2ccccc2N1c1ccccc1` [Compound 11, (3Z,3′Z)-3,3′-(Hydrazine-1,2-diylidene)bis(1-phenylindolin-2-one)]: the IC50 came to 25.6 ± 2.39 µM in the experiment on KB-3-1 cells and 22 ± 2.37 µM with KB-V1 cells. The “RR (MDR1 selectivity)” value in the experiment on KB-V1 cells is 1.16.

For `Cc1ccc2c(c1)/C(=N/N=C1\C(=O)N(c3ccccc3)c3ccccc31)C(=O)N2` [Compound 15, (Z)-5-Methyl-3-((Z)-(2-oxo-1-phenylindolin-3-ylidene)hydrazono)indolin-2-one], the half-maximal inhibitory concentration (IC50) in the experiment with KB-3-1 cells is 8.37 ± 0.62 µM. In addition, in the experiment with KB-V1 cells, the IC50 is 8.06 ± 1.68 µM and the “RR (MDR1 selectivity)” value was 1.04.

Turning to `O=C1Nc2ccc(Br)cc2/C1=N/N=C1\C(=O)N(c2ccccc2)c2ccccc21` [Compound 14, (Z)-5-Bromo-3-((Z)-(2-oxo-1-phenylindolin-3-ylidene)hydrazono)indolin-2-one], the IC50 with KB-3-1 cells was determined as 7.93 ± 2.11 µM; in the experiment with KB-V1 cells, 8.71 ± 0.27 µM. Also, the “RR (MDR1 selectivity)” value with KB-V1 cells is 0.91.

Turning to `O=C1Nc2ccccc2/C1=N/N=C1\C(=O)Nc2ccc(Cl)cc21` [Compound 6, (Z)-5-Chloro-3-((Z)-(2-oxoindolin-3-ylidene)hydrazono)indolin-2-one], the IC50 in the experiment on KB-3-1 cells was 9.67 ± 1.74 µM. Further, in the experiment with KB-V1 cells, the IC50 was 7.72 ± 0.5 µM and the “RR (MDR1 selectivity)” value worked out at 1.25.

By IC50 is commonly meant the concentration that gives 50% inhibition.
